The numbers were not newly measured in patent publication US20050096371A1, “Topical pharmaceutical compositions” (priority 2003, published 2005), which cites them from elsewhere.

Molecules are shown by their SMILES.

For one data set, the system named is human subjects. As to conditions: repeated insult patch test, 50 human subjects, total of 15 applications; manufacturer's brochure.
Another data set concerns humans. The settings on record: Marzulli and Maibach's method.

For the molecule `CN1CCCC1=O` [Pharmasolve®, N-methyl-2-pyrrolidone], in the data set on rabbit skin, the PII is listed as 0.5 and the “irritation to rabbit skin” value is listed as “practically nonirritating”. Further, the “primary dermal irritation / sensitization” value in the data set on human subjects is “neither a primary dermal irritant nor a sensitizer”.

Consider `CCOCCOCCO` [Transcutol®, diethylene glycol monoethyl ether], for which the cutaneous irritation entry in the data set with rabbits is given as “nonirritating”. In the data set with humans, the “cutaneous irritation / sensitization” value is “nonirritating and non-sensitizing”.
